Test results: US10131652B2, “Pyrimidinyloxy benzene derivatives as herbicides” (E. I. DU PONT DE NEMOURS AND COMPANY, priority 2014, dated 2018)

Legend:
Assay type in all cases: in vivo
[1] = test system: Italian ryegrass (Lolium multiflorum); test: Test B pre-/postemergence plant response
Summary of the method: (§1)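 Scoring used a 0–100 scale (100 = complete control) by visual comparison with untreated plants after approximately 10 days in the greenhouse. Compounds, in surfactant-containing non-phytotoxic solvent, were sprayed onto soil at planting or onto 2–10 cm seedlings.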

[2] = test system: barnyardgrass (Echinochloa crus-galli); test: Test B pre-/postemergence plant response
Summary of the method: as §1

[3] = test system: corn (Zea mays); test: Test B pre-/postemergence plant response
Summary of the method: as §1

[4] = test system: giant foxtail (Setaria faberii); test: Test B pre-/postemergence plant response
Summary of the method: as §1

[5] = test system: kochia (Kochia scoparia); test: Test B pre-/postemergence plant response
Summary of the method: as §1

[6] = test system: pigweed (Amaranthus retroflexus); test: Test B pre-/postemergence plant response
Summary of the method: as §1

[7] = test system: ragweed (common ragweed, Ambrosia elatior); test: Test B pre-/postemergence plant response
Summary of the method: as §1

[8] = test system: wheat (Triticum aestivum); test: Test B pre-/postemergence plant response
Summary of the method: as §1

[9] = test system: blackgrass (Alopecurus myosuroides); test: Test B postemergence plant response
Summary of the method: (§2)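 Pots, loam soil + sand; postemergence treatment at 1–2 leaf stage, 2–10 cm; greenhouse ~10 d; visual injury score 0 (none) to 100 (complete control) relative to untreated controls.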

[10] = test system: galium (catchweed bedstraw, Galium aparine); test: Test B postemergence plant response
Summary of the method: as §2

[11] = test system: barnyardgrass (Echinochloa crus-galli); test: Test C flooded paddy test plant response; conditions: Flood, 250 g ai/ha; scale of 0 to 100 where 0 is no effect and 100 is complete control; 13 to 15 days
Summary of the method: (§3)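 2-leaf plants; flood 3 cm, cpd into paddy water; greenhouse 13–15 d; visual score vs untreated, 0 = no effect, 100 = complete control; dash = no result.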

[12] = test system: ducksalad (Heteranthera limosa); test: Test C flooded paddy test plant response; conditions: Flood, 250 g ai/ha; scale of 0 to 100 where 0 is no effect and 100 is complete control; 13 to 15 days
Summary of the method: as §3

[13] = test system: rice (Oryza sativa); test: Test C flooded paddy test plant response; conditions: Flood, 250 g ai/ha; scale of 0 to 100 where 0 is no effect and 100 is complete control; 13 to 15 days
Summary of the method: as §3

[14] = test system: small-flower umbrella sedge (Cyperus difformis); test: Test C flooded paddy test plant response; conditions: Flood, 250 g ai/ha; scale of 0 to 100 where 0 is no effect and 100 is complete control; 13 to 15 days
Summary of the method: as §3

[15] = test system: chickweed (common chickweed, Stellaria media); test: Test D postemergence plant response; conditions: for Chickweed plant response rating: scale 0 to 100 (0 no effect, 100 complete control); for Plant response rating, Chickweed: scale 0 to 100, 0 no effect, 100 complete control
Summary of the method: (§4)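 Visual scoring from 0 (no effect) to 100 (complete control), relative to controls, 13–15 days after treatment in the greenhouse. Compounds were applied postemergence at the 1- to 4-leaf stage (2–18 cm) to potted plants in peat-based medium.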

[16] = test system: kochia (Kochia scoparia); test: Test D postemergence plant response; conditions: for Kochia plant response rating: 31 g ai/ha, scale 0 to 100 (0 no effect, 100 complete control); for Plant response rating, Kochia: scale 0 to 100, 0 no effect, 100 complete control
Summary of the method: as §4

[17] = test system: wild oat (Avena fatua); test: Test D postemergence plant response; conditions: for Oat, Wild plant response rating: 31 g ai/ha, scale 0 to 100 (0 no effect, 100 complete control); for Plant response rating, Oat, Wild: scale 0 to 100, 0 no effect, 100 complete control
Summary of the method: as §4

[18] = 31 g ai/ha, Preemergence, 0 to 100 scale where 0 is no effect and 100 is complete control
[19] = 125 g ai/ha, postemergence, 0 to 100 scale, 0 no effect, 100 complete control
[20] = Postemergence, 31 g ai/ha, 0 to 100 scale (0 no effect, 100 complete control)
[21] = Preemergence, 125 g ai/ha, 0 to 100 scale (0 no effect, 100 complete control)

FC(F)(Br)c1cc(-c2ccccc2Oc2ncc(Cl)cn2)no1 [Compound 162]
Plant response rating, Ryegrass, Italian [1, 18]: 0 | Plant response rating, Ryegrass, Italian [1, 19]: 50 | Plant response rating, Ryegrass, Italian [1, 20]: 0 | Ryegrass, Italian plant response rating [1, 21]: 40 | Plant response rating, Barnyardgrass [2, 18]: 20 | Plant response rating, Barnyardgrass [2, 19]: 90 | Plant response rating, Barnyardgrass [2, 20]: 10 | Barnyardgrass plant response rating [2, 21]: 100 | Plant response rating, Corn [3, 19]: 40 | Plant response rating, Corn [3, 20]: 20 | Plant response rating, Foxtail, Giant [4, 18]: 90 | Plant response rating, Foxtail, Giant [4, 19]: 90 | Plant response rating, Foxtail, Giant [4, 20]: 10 | Foxtail, Giant plant response rating [4, 21]: 100 | Plant response rating, Kochia [5, 18]: 70 | Plant response rating, Kochia [5, 19]: 100 | Plant response rating, Kochia [5, 20]: 90 | Kochia plant response rating [5, 21]: 70 | Plant response rating, Pigweed [6, 18]: 80 | Plant response rating, Pigweed [6, 19]: 100 | Plant response rating, Pigweed [6, 20]: 100 | Pigweed plant response rating [6, 21]: 100 | Plant response rating, Ragweed [7, 18]: 0 | Plant response rating, Ragweed [7, 19]: 40 | Plant response rating, Ragweed [7, 20]: 0 | Ragweed plant response rating [7, 21]: 20 | Plant response rating, Wheat [8, 19]: 30 | Plant response rating, Wheat [8, 20]: 20 | Plant response rating, Blackgrass [9, 19]: 30 | Plant response rating, Blackgrass [9, 20]: 30 | Plant response rating, Galium [10, 19]: 90 | Plant response rating, Galium [10, 20]: 90 | Barnyardgrass plant response rating [11]: 0 | Ducksalad plant response rating [12]: 0 | Rice plant response rating [13]: 0 | Sedge, Umbrella plant response rating [14]: 0 | Chickweed plant response rating ([15]; 16 g ai/ha): 50 | Chickweed plant response rating ([15]; 31 g ai/ha): 60 | Plant response rating, Chickweed ([15]; 62 g ai/ha): 60 | Plant response rating, Chickweed ([15]; 125 g ai/ha): 85 | Kochia plant response rating [16]: 100 | Plant response rating, Kochia ([16]; 62 g ai/ha): 100 | Plant response rating, Kochia ([16]; 125 g ai/ha): 100 | Oat, Wild plant response rating [17]: 5 | Plant response rating, Oat, Wild ([17]; 62 g ai/ha): 5 | Plant response rating, Oat, Wild ([17]; 125 g ai/ha): 10

CC(F)(F)c1cc(-c2ccccc2Oc2ncc(Br)cn2)no1 [Compound 149]
Plant response rating, Ryegrass, Italian [1, 18]: 0 | Plant response rating, Ryegrass, Italian [1, 19]: 20 | Plant response rating, Ryegrass, Italian [1, 20]: 0 | Ryegrass, Italian plant response rating [1, 21]: 10 | Plant response rating, Barnyardgrass [2, 18]: 10 | Plant response rating, Barnyardgrass [2, 19]: 40 | Plant response rating, Barnyardgrass [2, 20]: 10 | Barnyardgrass plant response rating [2, 21]: 70 | Plant response rating, Corn [3, 19]: 20 | Plant response rating, Corn [3, 20]: 10 | Plant response rating, Foxtail, Giant [4, 18]: 70 | Plant response rating, Foxtail, Giant [4, 19]: 60 | Plant response rating, Foxtail, Giant [4, 20]: 10 | Foxtail, Giant plant response rating [4, 21]: 100 | Plant response rating, Kochia [5, 18]: 20 | Plant response rating, Kochia [5, 19]: 100 | Plant response rating, Kochia [5, 20]: 90 | Kochia plant response rating [5, 21]: 80 | Plant response rating, Pigweed [6, 18]: 80 | Plant response rating, Pigweed [6, 19]: 100 | Plant response rating, Pigweed [6, 20]: 90 | Pigweed plant response rating [6, 21]: 100 | Plant response rating, Ragweed [7, 18]: 0 | Plant response rating, Ragweed [7, 19]: 20 | Plant response rating, Ragweed [7, 20]: 10 | Ragweed plant response rating [7, 21]: 0 | Plant response rating, Wheat [8, 19]: 10 | Plant response rating, Wheat [8, 20]: 0 | Plant response rating, Blackgrass [9, 19]: 60 | Plant response rating, Blackgrass [9, 20]: 10 | Plant response rating, Galium [10, 19]: 90 | Plant response rating, Galium [10, 20]: 90 | Barnyardgrass plant response rating [11]: 0 | Ducksalad plant response rating [12]: 80 | Rice plant response rating [13]: 0 | Sedge, Umbrella plant response rating [14]: 65 | Chickweed plant response rating ([15]; 16 g ai/ha): 5 | Chickweed plant response rating ([15]; 31 g ai/ha): 30 | Plant response rating, Chickweed ([15]; 62 g ai/ha): 30 | Plant response rating, Chickweed ([15]; 125 g ai/ha): 60 | Kochia plant response rating [16]: 90 | Plant response rating, Kochia ([16]; 62 g ai/ha): 100 | Plant response rating, Kochia ([16]; 125 g ai/ha): 100 | Oat, Wild plant response rating [17]: 0 | Plant response rating, Oat, Wild ([17]; 62 g ai/ha): 0 | Plant response rating, Oat, Wild ([17]; 125 g ai/ha): 5

FC(F)(Cl)c1cc(-c2ccccc2Oc2ncc(Cl)cn2)no1 [Compound 143]
Plant response rating, Ryegrass, Italian [1, 18]: 0 | Plant response rating, Ryegrass, Italian [1, 19]: 50 | Plant response rating, Ryegrass, Italian [1, 20]: 0 | Ryegrass, Italian plant response rating [1, 21]: 60 | Plant response rating, Barnyardgrass [2, 18]: 20 | Plant response rating, Barnyardgrass [2, 19]: 90 | Plant response rating, Barnyardgrass [2, 20]: 10 | Barnyardgrass plant response rating [2, 21]: 90 | Plant response rating, Corn [3, 19]: 30 | Plant response rating, Corn [3, 20]: 40 | Plant response rating, Foxtail, Giant [4, 18]: 70 | Plant response rating, Foxtail, Giant [4, 19]: 80 | Plant response rating, Foxtail, Giant [4, 20]: 10 | Foxtail, Giant plant response rating [4, 21]: 100 | Plant response rating, Kochia [5, 18]: 30 | Plant response rating, Kochia [5, 19]: 100 | Plant response rating, Kochia [5, 20]: 100 | Kochia plant response rating [5, 21]: 90 | Plant response rating, Pigweed [6, 18]: 90 | Plant response rating, Pigweed [6, 19]: 100 | Plant response rating, Pigweed [6, 20]: 90 | Pigweed plant response rating [6, 21]: 100 | Plant response rating, Ragweed [7, 18]: 0 | Plant response rating, Ragweed [7, 19]: 20 | Plant response rating, Ragweed [7, 20]: 0 | Ragweed plant response rating [7, 21]: 30 | Plant response rating, Wheat [8, 19]: 30 | Plant response rating, Wheat [8, 20]: 20 | Plant response rating, Blackgrass [9, 19]: 60 | Plant response rating, Blackgrass [9, 20]: 30 | Plant response rating, Galium [10, 19]: 100 | Plant response rating, Galium [10, 20]: 50 | Barnyardgrass plant response rating [11]: 30 | Ducksalad plant response rating [12]: 85 | Rice plant response rating [13]: 35 | Sedge, Umbrella plant response rating [14]: 100 | Chickweed plant response rating ([15]; 16 g ai/ha): 45 | Chickweed plant response rating ([15]; 31 g ai/ha): 50 | Plant response rating, Chickweed ([15]; 62 g ai/ha): 60 | Plant response rating, Chickweed ([15]; 125 g ai/ha): 80 | Kochia plant response rating [16]: 100 | Plant response rating, Kochia ([16]; 62 g ai/ha): 100 | Plant response rating, Kochia ([16]; 125 g ai/ha): 100 | Oat, Wild plant response rating [17]: 0 | Plant response rating, Oat, Wild ([17]; 62 g ai/ha): 5 | Plant response rating, Oat, Wild ([17]; 125 g ai/ha): 5
